Results on twelve compounds are retold here after patent publication US8188011B1, “Optimization of ligand affinity for RNA targets using mass spectrometry” (Isis Pharmaceuticals, Inc., priority 2000, dated 2012).

Where “and” joins values, the source holds several entries; their conditions need not be identical. Identical values can stand only once. Entries after “also recorded” stand apart in the source; their conditions may differ. Like-named read-outs stand apart in the source and are kept apart here. Marks after values point to notes of the source that are not given here.

Test [1] relates to 27 nucleotide fragment of bacterial 16S ribosomal RNA incorporating the A-site. Briefly: ESI-FT-ICR MS detection of non-covalent ligand:16S RNA complexes (ion abundance relative to unbound RNA). Type of test: binding. The note with it: for ion abundance of binary ligand:16S complex relative to unbound 16S RNA: 200 μM ligand, 5 μM target 16S RNA fragment; for affinity for 16S (order of magnitude): ESI-MS assay. How it is done: In separate mixtures, 200 μM of three ligands IBIS-326611 ((2S)-2-amino-3-hydroxy-1-piperazinylpropan-1-one), IBIS-326645 (5-methyl-1-(2-oxo-2-piperazinylethyl)-1,3-dihydropyrimidine-2,4-dione) and a concatenated compound thereof, IBIS-271583 (1-{2-[(3R)-4-(2S)-2-amino-3-hydroxypropanoyl)-3-methylpiperazinyl]-2-oxoethyl}-5-methyl-1,3-dihydropyrimidine-2,4-dione) are each mixed with 5 μM of target 16S RNA fragment and analyzed by mass spectrometry. IBIS-326611 is shown in FIG. 5 to form a binary complex having an ion abundance 27.8% that of the unbound 16S RNA while IBIS-326645 in FIG. 6 forms a binary complex having an ion abundance 14.7% that of the unbound 16S RNA.
All MS experiments were performed by using an Apex II 70e ESI-FT-ICR MS (Bruker Daltonics, Billerica, Mass.) with an actively shielded 7 tesla superconducting magnet. RNA solutions were prepared in 50 mM NH4OAc (pH 7), mixed with 10% isopropanol to aid desolvation, and infused at a rate of 1.5 μL/min by using a syringe pump. Ions were formed in a modified electrospray source (Analytica, Branford, Conn.) by using an off-axis grounded electrospray probe positioned ca. 1.5 cm from the metallized terminus of the glass desolvation capillary biased at 5,000 V. A countercurrent flow of dry […] gas heated to 150° C. was used to assist in the desolvation process. Ions were accumulated in an external ion reservoir comprised of a radio frequency-only hexapole, a skimmer cone, and an auxiliary electrode for 1,000 ms before transfer into the trapped ion cell for mass analysis. Each spectrum was the result of the co-addition of 64 transients comprised of 524,288 data points acquired over a […] bandwidth, resulting in a 1.2-sec detection interval. All aspects of pulse sequence control, data acquisition, and postacquisition processing were performed by using a Bruker Daltonics data station running XMASS Version 4.0 on a Silicon Graphics (Mountain View, Calif.) R5000 computer.
RNA binding ligands are selected from a set of compounds using mass spectrometry. The RNA used for the target molecule is an RNA whose electrospray ionization properties have been optimized in conjunction with optimization of the electrospray ionization and desolvation conditions. […] A 50 μM stock solution of the RNA is purified, and dialyzed to remove sodium and potassium ions.
The compound set is pooled into mixtures of 8 members, each present at 1-10 mM in […]. A collection of these mixtures is diluted 1:50 into an aqueous solution containing 50-150 mM ammonium acetate buffer at pH 7.0, 1-5 μM RNA target, and 10-50% isopropanol, ethanol, or methanol to create the screening sample. The aqueous solution contains 100 μM each of 8 compounds, 50 mM ammonium acetate, 5 μM RNA target, and 25% isopropanol. These screening samples are arrayed in a 96-well microtiter plate, or added to individual vials for queuing into an automated robotic liquid hander under computer control by the mass spectrometer.
The source voltage potentials are adjusted to give stable electrospray ionization by monitoring the ion abundance of the free RNA. […] If available on the mass spectrometers, the partial gas pressure beyond the desolvation capillary is adjusted by throttling the pumping speed. This gas pressure may also be altered to optimize the ion abundance and observation of the ammonium ion adducts. After instrument performance has been optimized, the voltage potential between the capillary and skimmer lens is increased to reduce the abundance of the ion from the monoammonium-RNA complex to […] of the abundance of the ion from the RNA. These instrument parameters are used for detection of complexes between the RNA and compound set.
The compound set is screened for members that form non-covalent complexes with the RNA. […]

The target of test [2] is 16S ribosomal RNA fragment (27mer RNA, SEQ ID NO:1). The test can be described thus: ESI-MS titration of 2-DOS against 16S, polynomial fit for dissociation constants. Format: binding, bacterial. To be noted: 4th order polynomial fit, 100 mM ammonium acetate buffer. How it is done: 2′-O-ACE protected 27mer RNA ([…]; SEQ ID NO:1) was purchased from Dharmacon Research (Boulder, Colo.). Aqueous solutions were deprotected for 30 min at 60° C. in a 0.1M tetramethylenediamine acetate buffer at pH 3.5. […] All chemicals were purchased from Aldrich Chemicals (Milwaukee), except for 2-deoxystreptamine and 3,5-diamino-1-N-methyl-triazole, which were prepared according to Georgiadis et al (J. Carbohydr. Chem. 1991, 10, 739-748) and Kaiser et al (U.S. Pat. No. 2,648,670). Ligands were added to the indicated final concentrations from 20 mM aqueous solutions.
Identical sample preparations were used for experiments with FTICR mass spectrometer. […] Sample was introduced at 1.0 μL/min and the capillary interface unheated. Ions were stored for 1.25 sec in a hexapole ion guide prior to transfer to the trapped ion cell. The indicated gas pressure over the vacuum pump situated below the hexapole ion guide was ˜8×10^−6 mbar. The parallel measurements of relative activation energy were performed with the FTICR mass spectrometer by varying the potential difference between the capillary exit and the first skimmer lens element. Typically, 32 1.2 sec transients of 512 k data points were summed prior to Fourier transformation and display.
2-deoxystreptamine (2-DOS) bound to 16S at multiple locations as a function of increasing concentration. At 0.33 mM, one 2-DOS bound 16S, generating an [M-5H^+]^5− complex observed at m/z 1758.9. Complexes corresponding to three and four 2-DOS molecules bound concurrently to 16S appeared at concentrations above 3.3 mM. Knowledge of the binding stoichiometry lead to the use of a fourth-order polynomial for calculation of the respective dissociation constants (KD) (Greig et al., J. Am. Chem. Soc. 1995, 117, 10765-10766).

The test system of test [3] is 27-mer fragment of ribosomal RNA comprising the 16S A-site. Briefly: Mode of binding of ligand pairs by ESI-MS (presence or absence of ternary complex). Further details: species or system bacterial. To be noted: for binding interaction of ligand pair 2-DOS / 3,5-DT on 16S RNA: 5 μM 16S, 100 μM 2-DOS, 0.5 mM 3,5-DT; for binding interaction of ligand pair 2-DOS / 2,4-diaminopyrimidine on 16S RNA: no ternary complex signal; for binding interaction of ligand pair Ibis-326732 / glucosamine on 16S RNA: 70 μM Ibis-326732, 100 μM glucosamine, 5 μM 16S RNA. The text has this:
Ligands bind competitively for a target when the binding of one ligand prevents the binding of the other ligand is the result of the ligands binding to the target at the same location. In this situation, the mixture contains an equilibrium of two binary complexes, one of which being one ligand bound to the target and the other being the other ligand bound to the target. The ligand having the greater affinity for the target will predominate and thus have higher signal intensity for its binary complex with the target compared to the other ligand. Competitive binding interaction between two ligands is determined according to methods of the invention by analyzing the mixture by mass-spectrometry to detect the presence or lack of signal corresponding to a ternary complex where both ligands are bound to the target at the same time. The lack of signal for a ternary complex indicates a competitive binding interaction between the two ligands while the presence of the signal indicates a non-competitive interaction.
Accordingly, in an aspect of the present invention, there is provided a method for determining the relative interaction between at least two ligands with respect to a target substrate. In practicing this method an amount of each of the ligands is mixed with an amount of the target substrate to form a mixture. This mixture is analyzed by mass spectrometry to determine the presence or absence of a ternary complex corresponding to the simultaneous adduction of two of the ligands with the target substrate.
Ligands bind concurrently when the binding of one ligand to the target is unaffected by the binding of the other and is a consequence of the ligands binding to the target at distinct sites. […] The ligand having the greater affinity for the target will have higher signal intensity for its binary complex with the target compared to the other ligand. […] Particularly, the absolute ion abundance of the ternary complex (TL1L2) is compared to the relative ion abundance of the binary complexes (TL1 and TL2) which contribute to the formation of the ternary complex with respect to the unbound target (TL1×TL2/T). Since there are two binary complexes contributing the formation of the ternary complex, the comparison is with the sum of the two contributing binary complexes i.e. TL1×TL2/T+TL2×TL1/T. If the absolute ion abundance of the ternary complex is equal to the sum of the relative ion abundance of the contributing binary complexes, then the two ligands concurrently bind to the target substrate. Expressed another way, a pair of ligands are concurrent binders for a target if in either of the following equivalent formulae the value of y is equal to zero: […]
In the compound collection used in Example 1, those compounds that formed complexes with the RNA target are pooled into groups of 4-10 and screened again as a mixture against the RNA target as outlined in Example 1. Since all of the compounds have been shown previously to bind to the RNA, three possible changes in the relative ion abundance are observed in the mass spectrometry assay. If two compounds bind at the same site, the ion abundance of the RNA complex for the weaker binder will be decreased through competition for RNA binding with the higher affinity binder (competitive binding). An example is presented in FIG. 3, where the ion abundance from a glucosamine-RNA complex is reduced as glucosamine is displaced from the RNA by addition of a benzimidazole compound. If two compounds can bind at distinct sites, signals will be observed from the respective binary complexes with the RNA and from the ternary complex where both compounds bind to the RNA simultaneously (concurrent binders). […] The relative ion abundance from the […] for 3,5-DT to the free RNA is measured, as is the relative ion abundance from the ternary complex between 3,5-DT, 2-DOS, and RNA and the binary complex. […]

Test [4] deals with 16S ribosomal RNA fragment. Briefly: Relative solution affinities of ligand:16S complexes. Format: binding, bacterial. To be noted: normalized to the solution affinity of 4-aminobenzamidine.

Regarding “1-{2-[(3R)-4-(2S)-2-amino-3-hydroxypropanoyl)-3-methylpiperazinyl]-2-oxoethyl}-5-methyl-1,3-dihydropyrimidine-2,4-dione [IBIS-271583]”, the “affinity for 16S RNA compared with another ligand (ion abundance of binary complexes)” value is “greater affinity for 16S than either parent compound” in test [1] and “greater affinity for the target 16S RNA than either of the parent compounds” in test [1] (listed as IBIS-271483). Further, the “ion abundance of binary ligand:16S complex relative to unbound 16S RNA” value in test [1] was found to be 14.7%; in test [1] (listed as IBIS-271483), 52.4%.

The term Kd denotes the free concentration of one partner at which half of the binding sites on the other are occupied at equilibrium, for simple one-to-one binding. On to `N[C@@H]1C[C@H](N)[C@@H](O)C(O)[C@H]1O` (stereo partly drawn) [2-DOS, 2-deoxystreptamine], for which the equilibrium dissociation constant (Kd) in test [2] (read-out: KD of 2-DOS:16S complex (first 2-DOS)) was 610 µM and 600 µM; in test [2] (read-out: KD of (2-DOS)2:16S complex (second 2-DOS)), 1400 ± 100 µM; in test [2] (read-out: KD of (2-DOS)3:16S complex (third 2-DOS)) it was 4000 ± 1000 µM. For the same compound, the “binding interaction of ligand pair 2-DOS / 3,5-DT on 16S RNA” value in test [3] is reported as “concurrent binding interaction; also recorded: cooperative binding”. For the same compound, the “binding interaction of ligand pair 2-DOS / 2,4-diaminopyrimidine on 16S RNA” value in test [3] was “preferred sites overlap and 2-DOS displaces DAP for binding”. In test [1], the “affinity for 16S RNA compared with another ligand (ion abundance of binary complexes)” value is on record as “greater binding affinity for the target RNA than DT”.

Turning to `NN1CN(SCc2ccccc2)C=N1` [2-amino-4-benzylthio-1,2,4-triazole], the “complex with RNA target observed by ESI-MS” value in test [1] is “seen”.

`Nc1n[nH]c(N)n1` [3,5-DT, 3,5-diamino-1,2,4-triazole]: the “binding interaction of ligand pair 2-DOS / 3,5-DT on 16S RNA” value in test [3] is “cooperative binding; also recorded: concurrent binding”; in test [3] (listed as DT), “concurrent binding interaction”. For the same compound, in test [1], the “affinity for 16S (order of magnitude)” value is “˜mM affinities”.

Consider `Cn1nc(N)nc1N` [3,5-diamino-1-N-methyltriazole], for which, in test [1], the “complex with RNA target observed by ESI-MS” value is given as “not observed”.

On to `N=C(N)c1ccc(N)cc1` [ABA, 4-aminobenzamidine], for which the “Relative Soln. Affinity” value in test [4] is recorded as 1.00^b.

For the compound `NC(=O)c1[nH]cnc1N` [AICA, 4-aminoimidazole-5-carboxamide], the “Relative Soln. Affinity” value in test [4] is recorded as “.26 + 0.04”.

`Nc1ccnc(N)n1` [DAP, 2,4-diaminopyrimidine]: in test [4], the “Relative Soln. Affinity” value was “.17 + 0.04”. Also, in test [3], the “binding interaction of ligand pair 2-DOS / 2,4-diaminopyrimidine on 16S RNA” value is “preferred sites overlap and 2-DOS displaces DAP for binding”. For the same compound, the “affinity for 16S (order of magnitude)” value in test [1] was “˜mM affinities”.

With `N[C@H]1C(O)O[C@H](CO)[C@@H](O)[C@@H]1O` (stereo partly drawn) [GA, glucosamine], the “Relative Soln. Affinity” value was “lower than GBI” in test [4] and “.86 + 0.03” in test [4] (listed as Glucosamine). The “binding interaction of ligand pair Ibis-326732 / glucosamine on 16S RNA” value in test [3] is listed as “competitive binders”.

Consider `N=C(N)Nc1nc2ccccc2[nH]1` [GBI, 2-guanidylbenzimidazole], for which, in test [4], the “Relative Soln. Affinity” value is reported as “.99 + 0.02”.

Take `N[C@@H](CO)C(=O)N1CCNCC1` [IBIS-326611, (2S)-2-amino-3-hydroxy-1-piperazinylpropan-1-one]: in test [1], the “ion abundance of binary ligand:16S complex relative to unbound 16S RNA” value came to 27.8%.

With `Nc1cccc2nc(C3CCNCC3)[nH]c12` [Ibis-326732, 4-amino-2-piperidin-4-ylbenzimidazole], the “binding interaction of ligand pair Ibis-326732 / glucosamine on 16S RNA” value in test [3] is listed as “competitive binders”. Also, the “affinity for 16S RNA compared with another ligand (ion abundance of binary complexes)” value in test [1] is “greater affinity than glucosamine”.
